Assay [1] deals with HLA-DRB1*04:01 (Homo sapiens, UniProt P01903+P01911, A100K/A169T/F76Y/I96L/K127E/L162R/M171V/N62H/P40V/Q125Y/R42H/S133A/S149N/S66Y/V115G/V209L/W38E). Kind of assay: Peptide competition binding assay to HLA-DRB1*04:01. The note with it: for Binding to HLA-DRB1*04:01 (in words): 15-mer T cell peptides, EC50 cutoff for measurable binding 50 μM.
The subject of assay [2] is CD4+ T cells in PBMC from HLA-DRB1*04:01+ subjects. The assay can be described thus: In vitro expansion of peptide-specific CD4+ T cells from PBMC and HLA class II tetramer staining. To be noted: for Responders (% in RA): RA subjects with positive in vitro response (>0.1% of CD4+ T cells tetramer+) of total tested, 10 μg/mL peptide, 14 days, n = 14, TNC44 and TNC59 n = 6; for Immunogenicity: Supplemental Table 1, ability to elicit an immune response in vitro (tetramer staining after expansion); for T cell responses in vitro (in words): noncitrullinated 15-mer versions. It is filed as cell-based, human. The text has this: TNC is a large protein (2110 amino acids in length) composed of an N-terminal assembly domain, 14.5 epidermal growth factor–like repeats (EGF-L), 8 constant fibronectin type III–like repeats (FNIII), and an additional 9 alternatively spliced FNIII elements, and a C-terminal fibrinogen-like globe (FBG) ([16]). Using a previously described algorithm ([9], [24]), we scanned the entire length of the TNC monomer and identified 64 arg-containing peptides with motifs that would predict to permit binding to HLA-DRB1*04:01 in either their noncitrullinated native form, citrullinated form, or both. Based on these predictions, we synthesized the citrullinated versions of these peptides and tested their ability to bind HLA-DRB1*04:01 and to elicit CD4^+ T cell expansion in vitro. Of the peptides synthesized, 8 cit-TNC peptides bound to HLA-DRB1*04:01 with moderate to high affinity (Table 1). Among these, cit-TNC17, cit-TNC22, cit-TNC45, cit-TNC50, and cit-TNC56 were determined to be the most immunogenic, based on their ability to drive epitope-specific T cell expansion, as measured by HLA class II tetramer (Tmr) staining of peripheral blood mononuclear cells (PBMC) from HLA-DRB1*04:01^+ subjects following 2 weeks of in vitro expansion (Table 1 and Supplemental Figure 1; supplemental material available online with this article; https://doi.org/10.1172/jci.insight.145217DS1).
Recombinant HLA-DRB1*04:01 protein was produced by the BRI Tetramer Core as previously described ([56]). Soluble HLA-DRB1*04:01 monomer was purified from insect cell culture supernatants and biotinylated at a sequence-specific site using biotin ligase (Avidity) prior to dialysis into phosphate storage buffer. The biotinylated monomer was loaded with 0.2 mg/mL of peptide by incubating at 37°C for 72 hours in the presence of 2.5 mg/mL n-octyl β-D-glucopyranoside and 1 mM Pefabloc SC (Sigma-Aldrich). Peptide-loaded monomers were conjugated into Tmrs using fluorescently labeled streptavidin (Invitrogen) for 6–18 hours at room temperature at a molar ratio of 8:1.
Cryopreserved PBMCs from RA and healthy subjects were cultured at 5 × 10^6 cells/well in a 48-well plate in RPMI-1640 + 10% HPS with 10 μg/mL of peptide. IL-2 (Novartis) was added at 325 IU/mL on day 6. On day 14, cells were stained for expression of Tmr-PE, CD25 APC (BD Biosciences), and CD4 FITC (BioLegend) (Supplemental Table 8) and then run on a FACSCanto. The data were analyzed by FlowJo software version 10.

Setting [3] is: Supplemental Table 1, citrullinated (X) vs arginine (R) versions, cutoff in the peptide binding assay 50 μM.

Like-named read-outs stand apart in the source and are kept apart here. Where a SMILES comes first, the peptide text is derived from it. Where no end group is shown, it is not given here. [ ]: non-standard residue; d: D form. Cit = NC(=O)NCCC[C@H](N)C(=O)O Some results are limits rather than exact numbers.

As a reminder, the EC50 is the concentration giving half of the maximal effect. Read a low EC50 as higher potency in that assay. Molecule `CC[C@H](C)[C@H](NC(=O)[C@H](CC(C)C)NC(=O)[C@H](CO)NC(=O)[C@@H](N)C(C)C)C(=O)N[C@@H](CO)C(=O)N[C@@H](CCCNC(N)=O)C(=O)N[C@@H](CCCNC(N)=O)C(=O)NCC(=O)N[C@@H](CC(=O)O)C(=O)N[C@@H](CCSC)C(=O)N[C@@H](CO)C(=O)N[C@@H](CO)C(=O)N[C@@H](CC(N)=O)C(=O)N1CCC[C@H]1C(=O)N[C@@H](C)C(=O)O` [TNC17] (H-VSLIS[Cit][Cit]GDMSSNPA-OH) had an EC50 in assay [1] of 3.6 µM. For the molecule `CC[C@H](C)[C@H](NC(=O)[C@H](CCC(=O)O)NC(=O)[C@H](C)NC(=O)[C@H](CCCNC(N)=O)NC(=O)[C@H](CC(C)C)NC(=O)[C@@H]1CCCN1C(=O)[C@H](CCCCN)NC(=O)[C@@H](N)[C@@H](C)O)C(=O)N[C@H](C(=O)N[C@H](C(=O)N[C@@H](CCC(=O)O)C(=O)N[C@@H](C)C(=O)N[C@@H](CCC(=O)O)C(=O)N1CCC[C@H]1C(=O)N[C@@H](CCC(=O)O)C(=O)O)[C@@H](C)O)C(C)C` [TNC44] (H-TKPL[Cit]AEIVTEAEPE-OH), the “Responders (% in RA)” value in assay [2] worked out at 33%. The EC50 in assay [1] came to 33.3 µM.

Take `CC[C@H](C)[C@H](NC(=O)[C@H](C)NC(=O)[C@@H]1CCCN1C(=O)[C@H](CCC(N)=O)NC(=O)[C@H](Cc1c[nH]c2ccccc12)NC(=O)[C@H](CCCNC(N)=O)NC(=O)[C@H](C)NC(=O)[C@@H](N)CC(C)C)C(=O)N[C@@H](C)C(=O)N[C@H](C(=O)N[C@H](C(=O)N[C@@H](CC(=O)O)C(=O)N[C@@H](CO)C(=O)N[C@@H](Cc1ccc(O)cc1)C(=O)N[C@H](C(=O)O)C(C)C)C(C)C)[C@@H](C)O` [TNC52] (H-LA[Cit]WQPAIATVDSYV-OH): the “Responders (% in RA)” value in assay [2] is 33%. In assay [1], this molecule showed an EC50 of 28.8 µM. The molecule `CC(C)C[C@H](NC(=O)[C@H](CCC(=O)O)NC(=O)[C@H](Cc1ccc(O)cc1)NC(=O)[C@H](CCC(N)=O)NC(=O)CNC(=O)[C@@H](N)CCC(N)=O)C(=O)N[C@@H](CCCNC(N)=O)C(=O)N[C@H](C(=O)N[C@@H](CC(=O)O)C(=O)N[C@@H](CC(C)C)C(=O)N[C@@H](CCCNC(N)=O)C(=O)N[C@@H](CC(=O)O)C(=O)N[C@@H](Cc1c[nH]cn1)C(=O)NCC(=O)N[C@@H](CCC(=O)O)C(=O)O)C(C)C` [TNC56] (H-QGQYEL[Cit]VDL[Cit]DHGE-OH) registered a 50% effective concentration (EC50) in assay [1] of 9 µM.

With `CSCC[C@H](NC(=O)[C@@H](N)CO)C(=O)N[C@@H](C)C(=O)N[C@@H](Cc1ccc(O)cc1)C(=O)N[C@@H](Cc1c[nH]cn1)C(=O)N[C@@H](CC(N)=O)C(=O)NCC(=O)N[C@@H](CCCNC(N)=O)C(=O)N[C@@H](CO)C(=O)N[C@@H](Cc1ccccc1)C(=O)N[C@@H](CO)C(=O)N[C@H](C(=O)N[C@@H](Cc1ccccc1)C(=O)N[C@@H](CC(=O)O)C(=O)N[C@@H](CCCCN)C(=O)O)[C@@H](C)O` [TNC59] (H-SMAYHNG[Cit]SFSTFDK-OH), the “Responders (% in RA)” value in assay [2] is 33%. The EC50 in assay [1] is 25 µM.

`CC[C@H](C)[C@H](NC(=O)[C@H](CC(C)C)NC(=O)[C@H](CO)NC(=O)[C@@H](N)C(C)C)C(=O)N[C@@H](CO)C(=O)N[C@@H](CCCNC(=N)N)C(=O)N[C@@H](CCCNC(N)=O)C(=O)NCC(=O)N[C@@H](CC(=O)O)C(=O)N[C@@H](CCSC)C(=O)N[C@@H](CO)C(=O)N[C@@H](CO)C(=O)N[C@@H](CC(N)=O)C(=O)N1CCC[C@H]1C(=O)N[C@@H](C)C(=O)O` [TNC-17RX] (H-VSLISR[Cit]GDMSSNPA-OH): the EC50 in assay [1] (setting [3]) turned out to be 4.7 µM. The same measure, in the same setting: as for `CC[C@H](C)[C@H](NC(=O)[C@H](CC(C)C)NC(=O)[C@H](CO)NC(=O)[C@@H](N)C(C)C)C(=O)N[C@@H](CO)C(=O)N[C@@H](CCCNC(N)=O)C(=O)N[C@@H](CCCNC(=N)N)C(=O)NCC(=O)N[C@@H](CC(=O)O)C(=O)N[C@@H](CCSC)C(=O)N[C@@H](CO)C(=O)N[C@@H](CO)C(=O)N[C@@H](CC(N)=O)C(=O)N1CCC[C@H]1C(=O)N[C@@H](C)C(=O)O` [TNC-17XR] (H-VSLIS[Cit]RGDMSSNPA-OH), the figure is above 50 µM. For `CC(C)C[C@H](NC(=O)[C@H](CCCNC(N)=O)NC(=O)[C@H](Cc1ccc(O)cc1)NC(=O)[C@H](CCCNC(=N)N)NC(=O)[C@H](CC(=O)O)NC(=O)[C@@H](N)Cc1ccccc1)C(=O)N[C@@H](CC(N)=O)C(=O)N[C@@H](Cc1ccc(O)cc1)C(=O)N[C@@H](CO)C(=O)N[C@@H](CC(C)C)C(=O)N1CCC[C@H]1C(=O)N[C@H](C(=O)NCC(=O)N[C@@H](CCC(N)=O)C(=O)N[C@@H](Cc1c[nH]c2ccccc12)C(=O)O)[C@@H](C)O` [TNC-22RX] (H-FDRY[Cit]LNYSLPTGQW-OH), the Immunogenicity result in assay [2] is on record as “Yes”. In addition, in assay [1] (setting [3]), a half-maximal response (EC50) required 0.9 µM. Turning to `CC(C)C[C@H](NC(=O)[C@H](CCCNC(=N)N)NC(=O)[C@H](Cc1ccc(O)cc1)NC(=O)[C@H](CCCNC(N)=O)NC(=O)[C@H](CC(=O)O)NC(=O)[C@@H](N)Cc1ccccc1)C(=O)N[C@@H](CC(N)=O)C(=O)N[C@@H](Cc1ccc(O)cc1)C(=O)N[C@@H](CO)C(=O)N[C@@H](CC(C)C)C(=O)N1CCC[C@H]1C(=O)N[C@H](C(=O)NCC(=O)N[C@@H](CCC(N)=O)C(=O)N[C@@H](Cc1c[nH]c2ccccc12)C(=O)O)[C@@H](C)O` [TNC-22XR] (H-FD[Cit]YRLNYSLPTGQW-OH), the Immunogenicity entry in assay [2] is reported as “Yes”. Also, the concentration for a half-maximal effect (EC50) in assay [1] (setting [3]) was 0.6 µM. `CC(C)C[C@H](NC(=O)[C@H](CCC(=O)O)NC(=O)[C@H](Cc1ccc(O)cc1)NC(=O)[C@H](CCC(N)=O)NC(=O)CNC(=O)[C@@H](N)CCC(N)=O)C(=O)N[C@@H](CCCNC(=N)N)C(=O)N[C@H](C(=O)N[C@@H](CC(=O)O)C(=O)N[C@@H](CC(C)C)C(=O)N[C@@H](CCCNC(N)=O)C(=O)N[C@@H](CC(=O)O)C(=O)N[C@@H](Cc1c[nH]cn1)C(=O)NCC(=O)N[C@@H](CCC(=O)O)C(=O)O)C(C)C` [TNC-56RX] (H-QGQYELRVDL[Cit]DHGE-OH): the half-maximal effective concentration (EC50) in assay [1] (setting [3]) is above 50 µM. `CC(C)C[C@H](NC(=O)[C@H](CCC(=O)O)NC(=O)[C@H](Cc1ccc(O)cc1)NC(=O)[C@H](CCC(N)=O)NC(=O)CNC(=O)[C@@H](N)CCC(N)=O)C(=O)N[C@@H](CCCNC(N)=O)C(=O)N[C@H](C(=O)N[C@@H](CC(=O)O)C(=O)N[C@@H](CC(C)C)C(=O)N[C@@H](CCCNC(=N)N)C(=O)N[C@@H](CC(=O)O)C(=O)N[C@@H](Cc1c[nH]cn1)C(=O)NCC(=O)N[C@@H](CCC(=O)O)C(=O)O)C(C)C` [TNC-56XR] (H-QGQYEL[Cit]VDLRDHGE-OH) came in with an EC50 in assay [1] (setting [3]) of 8.7 µM. Take “CEYEVSLISRRGDMSSNPAC [arg-TNC17, Cys-flanked arginine TNC17 peptide used in ELISA]”: the “Binding to HLA-DRB1*04:01 (in words)” value in assay [1] is reported as “did not”.

Turning to “CPTAQVESFRITYVPITGGC [arg-TNC50, Cys-flanked arginine TNC50 peptide used in ELISA]”, the “T cell responses in vitro (in words)” value in assay [2] is “had the ability to elicit T cell responses in vitro”. In addition, the “Binding to HLA-DRB1*04:01 (in words)” value in assay [1] is “bound”. For “CQGQYELRVDLRDHGETAFC [arg-TNC56, Cys-flanked arginine TNC56 peptide used in ELISA]”, in assay [1], the “Binding to HLA-DRB1*04:01 (in words)” value is “did not”. As for “CTPLAKFDRYRLNYSLPTGC [arg-TNC22, Cys-flanked arginine TNC22 peptide used in ELISA]”, in assay [2], the “T cell responses in vitro (in words)” value is recorded as “had the ability to elicit T cell responses in vitro”. In assay [1], the “Binding to HLA-DRB1*04:01 (in words)” value was “bound”. Turning to “CVSDATPDGFRLSWTADEGC [arg-TNC45, Cys-flanked arginine TNC45 peptide used in ELISA]”, in assay [2], the “T cell responses in vitro (in words)” value was “had the ability to elicit T cell responses in vitro”. Further, in assay [1], the “Binding to HLA-DRB1*04:01 (in words)” value is recorded as “bound”. Turning to FDRYRLNYSLPTGQW [TNC-22RR], the Immunogenicity entry in assay [2] was “Yes”. In assay [1] (setting [3]), this molecule gave an EC50 of 1 µM. Consider H-QGQYELRVDLRDHGE-OH [TNC-56RR], for which, in assay [1] (setting [3]), the EC50 is above 50 µM. On the same count and under the same terms, as for H-VSLISRRGDMSSNPA-OH [TNC-17RR], the figure is above 50 µM.

PDGFRLSWTADEGVF [TNC-45R]: the Immunogenicity entry in assay [2] is given as “Yes”. Besides, in assay [1] (setting [3]), the EC50 came to 5.7 µM. Regarding VESFRITYVPITGGT [TNC-50R], the Immunogenicity result in assay [2] is given as “Yes”. In assay [1] (setting [3]), this molecule had an EC50 of 1 µM.

Source of the values: PMC8021118, “Shared recognition of citrullinated tenascin-C peptides by T and B cells in rheumatoid arthritis” (JCI Insight, 2021).
